Results from patent US12257239B1, “Cytotoxic treatment of cancer cells” (IMAM MOHAMMAD IBN SAUD ISLAMIC UNIVERSITY, priority 2024, dated 2025).
≈ marks a conversion by molar mass, not a printed value.

Experiments:
[1] = tested on: human non-small cell lung cancer (A549); assay: Growth inhibition of cancerous cells, A549; assay type: cell-based; conditions: for IC50: A549
Experimental: (§1) The compound of Formula I was tested for its antitumor activity against various cancer cell lines, in vitro, in non-small cell lung cancer (A549), colorectal carcinoma (HCT116), prostate cancer (PC3), pharynx squamous carcinoma (FaDu), triple-negative breast cancer (MDA-MB-468), cervical cancer (HeLa), and human oral epithelial normal cell line (OEC).

[2] = tested on: triple-negative breast cancer (MDA-MB-468); assay: Growth inhibition of cancerous cells, MDA-MB-468; assay type: cell-based; conditions: Homo sapiens; for IC50: MDA-MB-468
Experimental: as §1

cervical cancer (HeLa) = assay: Growth inhibition of cancerous cells, HeLa; assay type: cell-based; conditions: Homo sapiens
Experimental: as §1

[3] = tested on: pharynx squamous carcinoma (FaDu); assay: Growth inhibition of cancerous cells, FaDu; assay type: cell-based; conditions: Homo sapiens
Experimental: as §1

[4] = tested on: colorectal carcinoma (HCT116); assay: Growth inhibition of cancerous cells, HCT116; assay type: cell-based; conditions: Homo sapiens, HCT-116; HCT116, 100 μg/mL; read-out: growth inhibition percentage
Experimental: as §1

prostate cancer (PC3) = assay: Growth inhibition of cancerous cells, PC3; assay type: cell-based; conditions: Homo sapiens; PC3, 100 μg/mL; read-out: growth inhibition percentage
Experimental: as §1

[5] = tested on: human oral epithelial normal cell line (OEC); conditions: 100 μg/mL
Experimental: as §1

[6] = 100 μg/mL, read-out: growth inhibition percentage

Row | IC50 [1] | IC50 [2] | IC50 (cervical cancer (HeLa)) | IC50 [3] | SMILES | inhibition at 100 µg/mL ([1]; A549, 100 μg/mL, read-out: growth inhibition percentage) | inhibition at 100 µg/mL ([2]; MDA-MB-468, 100 μg/mL, read-out: growth inhibition percentage) | inhibition at 100 µg/mL (cervical cancer (HeLa); [6]) | inhibition at 100 µg/mL [4] | inhibition at 100 µg/mL (prostate cancer (PC3)) | inhibition at 100 µg/mL [3, 6] | growth inhibition percentage [5]
1 | 7.63 µg/mL (≈ 14 µM) | 7.76 µg/mL (≈ 14.3 µM) | 4.83 µg/mL (≈ 8.89 µM) | 13.2 µg/mL (≈ 24.2 µM) | COc1cccc2c1C(=O)c1c(O)c3c(c(O)c1C2=O)C[C@@](O)(C(=O)CO)C[C@@H]3O[C@H]1C[C@H](N)[C@H](O)[C@H](C)O1 [doxorubicin, reference compound] |  |  |  |  |  |  | 
2 | 6 µg/mL | 5.5 µg/mL | 5.03 µg/mL | 5.03 µg/mL | O=C1S/C(=C\c2cc([N+](=O)[O-])ccc2O)C(=O)N1CCN1C(=O)c2ccccc2C1=O [Formula I, 3-(2-(1,3-dioxoisoindolin-2-yl)ethyl)-5-(2-hydroxy-5-nitrobenzylidene)thiazolidine-2,4-dione] | 78% | 90.8% | 70.8% | 85.7% | 83.8% | 89.1% | 48.89%
